In patent publication US20240190865A1, “T-TYPE CALCIUM CHANNEL ANTAGONISTS AND USES THEREOF” (THE BOARD OF TRUSTEES OF THE LELAND STANFORD JUNIOR …, priority 2021, published 2024):
“Also recorded” adds a separate entry of the source. Like-named read-outs stand apart in the source and are kept apart here.

Columns and labels:
[1] = In vivo pharmacokinetics in rats; set-up: species or system Sprague-Dawley rats
Method: Fasted male Sprague-Dawley rats between 6 to 8 weeks of age were dosed with calcium channel antagonists of the present disclosure to evaluate in vivo pharmacokinetics. Each compound was formulated in 5% DMAC+5% Solutol HS15+90% Saline to yield a solution for dosing. The rats were dosed intravenously (IV) at 1 mg/kg (1 mL/kg) via foot dorsal vein (N=3) or orally (PO) at 10 mg/kg (10 mL/kg) via oral gavage (N=3).
Blood collection: The animals were restrained manually, and approximately 200 μL blood/time point was collected into pre-cooled EDTA-K2 tubes via jugular vein and put on wet ice. The blood sample was centrifuged at 4° C. (2000 g, 5 min) to obtain plasma within 15 min after sample collection. The plasma samples were stored at approximately −70° C. until analysis.

[2] = test system: Miro1; assay: Rescue of Miro1 deficit in P301L tau donor fibroblasts (FCCP challenge, Miro1 immunocytochemistry); assay type: cell-based, human
Method: The compound of Example 15 rescued Miro1 deficit in P301L tau donor at risk for developing frontotemporal dementia (FTD). Method: A fibroblast was obtained from a non-symptomatic at risk carrier of the pathogenic P301L mutation in the MAPT/Tau gene, a highly penetrant risk factor for frontotemporal dementia (FTD). NINDS line ID: ND32956, collected from a person. Fibroblasts were seeded into 96-well assay plates. After 24 hours, cells were pre-treated with either vehicle (DMSO) or a dose-response of Example 15 compound. After 6 hrs of pre-treatment, cells were challenged with the mitochondrial stressor FCCP for 14 hours. After 14 hours of challenge, cells were fixed in paraformaldehyde and a standard immunocytochemistry protocol was followed to stain for Miro1 using a specific antibody. Images were acquired on the Yokogawa CQ1 confocal high-content imaging platform and the signal from the Miro1 antibody was quantified. Average Miro1 signal intensity was quantified from ˜400 cells/condition.
Similar to the method illustrated in Example 64, a Miro1 ratio could be calculated based on the Miro1 level after treatment of fibroblasts with FCCP compared with a control Miro1 level measured from fibroblasts that were not treated.

[3] = molecular target: Cav3.2 (Homo sapiens (Human), UniProt O95180); assay: In vitro patch clamp assay (SyncroPatch 384PE); assay type: cell-based; details: HEK293 cells
Chain of Cav3.2 (O95180 whole entry): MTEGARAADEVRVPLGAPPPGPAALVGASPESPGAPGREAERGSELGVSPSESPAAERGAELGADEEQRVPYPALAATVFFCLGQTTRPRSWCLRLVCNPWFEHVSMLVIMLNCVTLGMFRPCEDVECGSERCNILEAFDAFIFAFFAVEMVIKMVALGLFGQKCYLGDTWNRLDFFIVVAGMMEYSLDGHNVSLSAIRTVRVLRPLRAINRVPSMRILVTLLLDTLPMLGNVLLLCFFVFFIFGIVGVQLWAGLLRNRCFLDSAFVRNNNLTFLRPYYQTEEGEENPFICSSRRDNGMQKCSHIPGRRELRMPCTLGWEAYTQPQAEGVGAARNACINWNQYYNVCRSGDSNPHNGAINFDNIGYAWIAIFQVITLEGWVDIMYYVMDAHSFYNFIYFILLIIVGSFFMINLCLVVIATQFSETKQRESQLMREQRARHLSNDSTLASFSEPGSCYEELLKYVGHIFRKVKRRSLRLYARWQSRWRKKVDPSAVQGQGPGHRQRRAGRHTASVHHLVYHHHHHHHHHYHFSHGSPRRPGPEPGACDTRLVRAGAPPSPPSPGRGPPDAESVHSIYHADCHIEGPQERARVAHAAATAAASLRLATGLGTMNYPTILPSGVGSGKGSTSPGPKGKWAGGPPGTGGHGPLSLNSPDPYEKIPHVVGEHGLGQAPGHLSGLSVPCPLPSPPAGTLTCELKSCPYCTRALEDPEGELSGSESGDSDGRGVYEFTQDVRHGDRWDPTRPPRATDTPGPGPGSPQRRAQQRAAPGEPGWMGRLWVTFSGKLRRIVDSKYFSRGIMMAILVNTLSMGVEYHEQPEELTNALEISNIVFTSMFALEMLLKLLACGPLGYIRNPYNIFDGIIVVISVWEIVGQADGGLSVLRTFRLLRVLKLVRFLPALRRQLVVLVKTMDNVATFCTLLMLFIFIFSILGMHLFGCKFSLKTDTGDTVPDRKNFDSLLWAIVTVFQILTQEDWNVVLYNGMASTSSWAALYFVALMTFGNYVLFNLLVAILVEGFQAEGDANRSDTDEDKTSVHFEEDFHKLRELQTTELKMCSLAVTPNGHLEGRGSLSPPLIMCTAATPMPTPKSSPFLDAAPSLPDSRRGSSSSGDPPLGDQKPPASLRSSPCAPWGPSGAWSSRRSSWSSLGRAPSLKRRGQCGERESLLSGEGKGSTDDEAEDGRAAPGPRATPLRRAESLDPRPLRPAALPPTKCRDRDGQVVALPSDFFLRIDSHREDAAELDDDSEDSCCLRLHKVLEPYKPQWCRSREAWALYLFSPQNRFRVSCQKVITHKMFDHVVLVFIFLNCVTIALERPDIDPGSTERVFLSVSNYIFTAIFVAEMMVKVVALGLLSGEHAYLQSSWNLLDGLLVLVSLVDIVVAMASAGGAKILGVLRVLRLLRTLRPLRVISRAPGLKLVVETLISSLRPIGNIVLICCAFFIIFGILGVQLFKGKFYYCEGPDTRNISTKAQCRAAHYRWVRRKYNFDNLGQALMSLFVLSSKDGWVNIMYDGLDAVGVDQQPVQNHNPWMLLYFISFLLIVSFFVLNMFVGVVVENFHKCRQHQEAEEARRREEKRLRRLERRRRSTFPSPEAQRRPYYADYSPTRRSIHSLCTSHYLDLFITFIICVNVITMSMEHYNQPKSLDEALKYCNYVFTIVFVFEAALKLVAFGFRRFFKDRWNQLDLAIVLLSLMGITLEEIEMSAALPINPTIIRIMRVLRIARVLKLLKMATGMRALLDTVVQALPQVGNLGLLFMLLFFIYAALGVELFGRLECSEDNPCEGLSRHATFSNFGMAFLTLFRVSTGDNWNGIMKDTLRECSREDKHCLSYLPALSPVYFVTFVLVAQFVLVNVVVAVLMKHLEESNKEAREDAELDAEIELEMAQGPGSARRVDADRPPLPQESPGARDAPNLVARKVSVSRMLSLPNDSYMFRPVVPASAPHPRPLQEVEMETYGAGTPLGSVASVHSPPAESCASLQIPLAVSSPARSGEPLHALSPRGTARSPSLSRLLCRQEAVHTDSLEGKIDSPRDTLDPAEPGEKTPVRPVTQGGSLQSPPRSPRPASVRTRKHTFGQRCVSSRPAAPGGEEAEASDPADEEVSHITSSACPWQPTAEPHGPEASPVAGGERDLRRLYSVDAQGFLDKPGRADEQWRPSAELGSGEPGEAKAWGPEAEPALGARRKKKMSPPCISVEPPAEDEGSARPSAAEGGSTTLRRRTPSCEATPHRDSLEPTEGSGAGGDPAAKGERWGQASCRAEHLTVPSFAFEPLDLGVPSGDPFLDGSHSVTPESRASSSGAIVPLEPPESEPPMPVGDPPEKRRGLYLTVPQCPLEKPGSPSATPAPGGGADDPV
Method: Patch clamp assays were performed at Charles River. HEK293 cells were cultured in Dulbecco's Modified Eagle Medium/Nutrient Mixture F-12 (D-MEM/F-12) supplemented with 10% fetal bovine serum, 100 U/mL penicillin G sodium, 100 μg/mL streptomycin sulfate and 500 μg/mL G418. Before testing, cells in culture dishes were washed twice with Hank's Balanced Salt Solution, treated with Accutase™ and re-suspended in the culture media (˜20×10^6 cells in 20 mL). Cells in suspension were allowed to recover for 10 minutes in tissue culture incubator set at 37° C. in a humidified 95% air: 5% CO2 atmosphere. Immediately before use in the SyncroPatch 384PE system (SP384PE), the cells were washed twice in extracellular buffer (HB-PS) to remove the culture medium and re-suspended in 20 mL of HB-PS. Extracellular buffer was loaded into the wells of Nanion 384-well Patch Clamp (NPC-384, 4×M) chip (60 μL per well). Then, cell suspension was pipetted into the wells (20 μL per well) of the chip. After establishment of the whole-cell configuration, membrane currents were recorded using patch clamp amplifier in the SP384PE system.

[4] = In vivo pharmacokinetics in dogs; details: dog, plasma; male beagle dogs, 1 mg/kg IV and 3 mg/kg PO; read-out: oral bioavailability (F)
Method: In vivo experiments were performed in dogs to evaluate certain calcium channel antagonists of the present disclosure. For instance, Example 15 was evaluated in adult male non-naïve beagle dogs (N=6), 8-10 kg, at 1 mg/kg IV and 3 mg/kg PO. The dogs were given free access to food and water for the IV group, were fasted overnight and fed 4 hr post-dosing for the PO group. The IV group was administered Example 15 via cephalic vein injection. The PO group was administered 3 mg/kg Example 15 by oral gavage. Dosing formulations were prepared at 1 mg/mL in 5% dimethylacetamide, 5% Solutol HS 15, 90% saline prior to use.
Blood collection: The animals were restrained manually, and approximately 0.5 mL blood/time point was collected via cephalic vein into pre-cold EDTA-K2 tubes. Blood samples were chilled on wet ice until centrifuged at 4° C. to obtain plasma within 15 minutes of sample collection.

[5] = Brain penetration in mice; assay type: in vivo; details: male C57BL/6 mice; for concentration at 4 h: mouse, brain, 4 hours post-dose
Method: Male C57BL/6 mice at 6-8 weeks were dosed once with Example 15 in two experiments (N=3 per timepoint) at 1 mg/kg IV or 10 mg/kg PO, and then compound concentration was measured at various times up to 24 hours. Dosing solutions were prepared of Example 15 in 0.2 mg/mL (IV) or 1 mg/mL (PO) in 5% dimethylacetamide, 5% Solutol HS 15, 90% saline solution prior to use. Compound was administered either IV by tail vein injection or PO by oral gavage.
Blood collection: The animal was restrained manually at the designated time points, approximately 110 μL of blood sample was collected via facial vein into K2EDTA tubes. Blood sample was put on ice and centrifuged at 2000 g for 5 mins to obtain plasma sample within 15 minutes.
Brain collection: After the blood collection, the animals were euthanized via CO2. The whole brain was collected, rinsed with cold saline, dried on filtrate paper, weighed, and snap frozen by placing into dry-ice.
The brain penetrance of Example 15 was calculated using mouse plasma/brain PK and relative mouse plasma and brain homogenate binding. […] For instance, at 4 hours post-dose: Example 15 brain concentration>100 ng/mL (IV); Example 15 brain concentration>1000 ng/mL (PO).

[6] = rat, compared to Example 16 of U.S. Pat. No. 7,875,636
[7] = rat, plasma, male Sprague-Dawley rats, 1 mg/kg IV, read-out: Mean (ng/mL) after 1 mg/kg IV dose
[8] = rat, plasma, male Sprague-Dawley rats, 10 mg/kg PO, read-out: Mean (ng/mL) after 10 mg/kg PO dose

Structure (SMILES): C[C@@H](NC(=O)Cc1ccc(C(F)(F)F)cc1)c1cc2cnn(CC(F)(F)F)c2cn1 [Example 15, (R)—N-(1-(1-(2,2,2-trifluoroethyl)-1H-pyrazolo[3,4-c]pyridin-5-yl)ethyl)-2-(4-(trifluoromethyl)phenyl)acetamide]
- Mean (ng/mL) after 1 mg/kg IV dose ([1]; male Sprague-Dawley rats, 1 mg/kg IV, 24 hr, BQL = below quantitation level): BQL
- AUC [1, 6]: higher
- Cmax [1, 6]: higher
- half-life (t1/2) [1, 6]: about two-fold higher
- concentration at 0.25 h [1, 7]: 890 ng/mL
- concentration at 0.5 h [1, 7]: 764 ng/mL
- concentration at 1 h [1, 7]: 621 ng/mL
- concentration at 2 h [1, 7]: 423 ng/mL
- concentration at 4 h [1, 7]: 193 ng/mL
- concentration at 8 h [1, 7]: 26.3 ng/mL
- concentration at 12 h [1, 7]: 4.42 ng/mL
- concentration at 0.25 h [1, 8]: 4110 ng/mL
- concentration at 0.5 h [1, 8]: 4510 ng/mL
- concentration at 1 h [1, 8]: 4710 ng/mL
- concentration at 2 h [1, 8]: 5440 ng/mL
- concentration at 4 h [1, 8]: 4070 ng/mL
- concentration at 8 h [1, 8]: 1240 ng/mL
- concentration at 12 h [1, 8]: 329 ng/mL
- concentration at 24 h ([1]; rat, plasma, male Sprague-Dawley rats, 10 mg/kg PO, 24 hr, read-out: Mean (ng/mL) after 10 mg/kg PO dose): 2.49 ng/mL
- rescue of Miro1 deficit ([2]; P301L tau donor fibroblasts in response to FCCP): completely rescued Miro1 reduction deficit; also recorded: dose-dependent rescue of Miro1 deficit
- IC50 ([2]; P301L tau donor fibroblasts, 6 hrs pre-treatment, FCCP 14 hours, read-out: IC50, rescue of Miro1 reduction deficit): 584 nM
- IC50 [3]: 163 nM
- bioavailability [4]: > 50%
- brain penetration ([5]; IV and PO experiments): measurable brain penetration
- concentration at 4 h ([5]; 1 mg/kg IV): > 100 ng/mL
- concentration at 4 h ([5]; 10 mg/kg PO): > 1000 ng/mL
